Experiment: Solubilities of pesticides in compounds of the formula (1)
Format: physicochemical
Method: The solubilities of various pesticides were determined in various compounds of the formula (1) at 25° C. All data are in % by weight (Table 1).

CCCCOC(=O)C1CC(=O)N(C)C1 (centres unmarked) [example 3, N-Butyl N-Methyl-2-Pyrrolidone-4-Carboxylate]
Solubility of Pendimethalin in the compound of the formula (1): 38.9 % by weight
Solubility of Tebuconazole in the compound of the formula (1): 37.0 % by weight
Solubility of Triadimefon in the compound of the formula (1): 43.0 % by weight
Solubility of Trifloxystrobin in the compound of the formula (1): 30.1 % by weight
Solubility of Trifluralin in the compound of the formula (1): 57.4 % by weight

— US20130217892A1, “Use Of N-Substituted 2-Pyrrolidone-4-Carboxylic Acid Esters And Solvents” (CLARIANT FINANCE (BVI) LIMITED, priority 2010, published 2013)
